Measured values from patent US12533353B2, “Methods of treatment of cancer comprising CDC7 inhibitors” (CARNA BIOSCIENCES, INC., priority 2018, dated 2026).
Where two headings read alike, the source gives them in different places.

What was measured:
[1] = target: OATP1B1 (Homo sapiens, UniProt Q9Y6L6); assay: In vitro transporter inhibition; format: in vitro ADME
[2] = Absolute oral bioavailability; details: in vivo, free base suspension, fasted, range given for mouse, rat and dog together, read-out: absolute oral bioavailability (% F)
[3] = tested on: MV-4-11 cancer cells; assay: MV-4-11 human leukemia systemic survival study; format: in vivo, mouse
Procedure: Female NOD SCID mice intravenously inoculated with MV-4-11 cancer cells were administered (i) vehicle control (0.1 M HCl/0.5% MC400, oral) or (ii) SRA141 initially at 60 mg/kg BID for 5 consecutive days of a 7-day cycle from Days 0 to 21, and then due to significant body weight loss, at 40 mg/kg BID on the same schedule from Days 22 to 73 (n=10 per treatment group). Survival was the only efficacy endpoint in this study, given the systemic nature of the cancer model.

[4] = tested on: tumoral phospho-MCM2 (pMCM2); assay: Mouse SW620 colorectal xenograft PK/PD assessment; format: in vivo
Procedure: The effect of SRA141 treatment on tumoral phospho-MCM2 (pMCM2), a direct substrate of Cdc7 and downstream marker of Cdc7 inhibition, was determined in mice bearing SW620 xenografts. Changes in pMCM2 were correlated with SRA141 concentrations in tumor and plasma over a 48-hour period following drug administration to construct a rudimentary PK/PD model.
Specifically, female BALB/c mice bearing subcutaneous SW620 tumors were administered single oral doses of SRA141 at 30, 60 or 120 mg/kg (n=15 per group). Control animals were administered vehicle (0.1 M HCl/0.5% MC400; n=10). At 2, 4, 8, 24 and 48 hours following treatment, three animals from each group (n=2 for control) were terminated, and plasma and tumor sampled for analysis.

[5] = tested on: AML-blast progenitors; assay: 3D growth in methylcellulose matrix, 14 days; format: cell-based
Procedure: (§1) The anti-proliferative activity of SRA141 (0.3-5 μM) was also evaluated in additional 3D growth studies conducted in a methylcellulose growth matrix using normal human myeloid (n=3) and AML-blast progenitors incubated for 14 days.

[6] = tested on: normal human myeloid progenitors (normal bone marrow); assay: 3D growth in methylcellulose matrix, 14 days; format: cell-based
Procedure: as §1

[7] = Absolute oral bioavailability; details: dog, in vivo, read-out: absolute oral bioavailability (% F)
[8] = tested on: MV-4-11 tumor xenografts; assay: Rat xenograft model of AML (MV-4-11), SRA141 monotherapy; format: in vivo; parameters: complete regressions (tumor volume <13.5 mm3 for 3 consecutive measurements): unit not given here; details: for tumor growth inhibition (TGI): 5 days of 7-day cycle, 4 weeks, Day 42; for median tumor volume: in mm³ (unit assumed)
Procedure: The efficacy of a Cdc7 inhibitor (compound SRA141) as a monotherapy was tested in a rat xenograft model of Acute Myelogenous Leukemia (AML) (FIG. 2). Female rnu/rnu rats were inoculated subcutaneously with 1×10^7 MV-4-11 human acute myelogenous leukemia cells. MV-4-11 cells were injected in a totally volume of 0.1 mL PBS in 1:1 Matrigel®. Rats began SRA141 treatment when tumors reached an average size of 300-400 mm^3. Rats bearing MV-4-11 tumor xenografts were orally administered (i) vehicle control (0.5% CMC-Na/1% Poloxamer 188) or (ii) SRA141 at 75 mg/kg BID for 5 consecutive days of a 7-day cycle for 4 weeks or (iii) SRA141 at 150 mg/kg QD for 5 consecutive days of a 7-day cycle for 4 weeks (n=10 per treatment group). Tumor volume measurements were taken biweekly and body weight measurements were taken biweekly to day 15, then daily to end of study. Tumor growth inhibition was calculated on Day 42, the final day of the study.

[9] = tested on: MCM2, Ser40/41 and Ser53 (Colo-205 cells); assay: Phosphorylation status of Cdc7 target MCM2 in cells; format: cell-based, human; details: Colo-205, 8 to 24 hours
Procedure: Colo-205 cells were treated with SRA141 (at concentrations between 0.033 and 3.3 μM) for 8 to 24 hours with subsequent assessment of the phosphorylation status of the downstream targets for Cdc7 (MCM2, Ser40/41 and Ser53), and the putative off-target kinases CDK8 (STAT1, Ser727); CDK7 and 9 (RNA pol II, Ser2); LATS2 (YAP1, Ser127) as well as the levels of MCL-1, known to be indirectly controlled by CDK9 (Gregory, 2015).

[10] = 4-cycle repeat oral dose toxicology study (5 days on/2 days off); format: in vivo, rat; details: for Cmax / AUC(0-t): plasma, po; for AUC(0-t): read-out: AUC24 h
Procedure: Toxicology studies evaluating SRA141 were conducted in rat and dog following single and repeat oral dosing for up to 4 cycles (5 days on/2 days off per cycle). In addition, the potential genetic toxicity of SRA141 was evaluated in vitro.

[11] = 60 then 40 mg/kg BID, 5 days of 7-day cycle
[12] = 50 mg/kg/day, at NOAEL, rat, female
[13] = 50 mg/kg/day, at NOAEL, rat, male
[14] = 100 mg/kg/day, at MTD/HNSTD, rat, female
[15] = 100 mg/kg/day, at MTD/HNSTD, rat, male

Sequence of OATP1B1 (Q9Y6L6 whole entry): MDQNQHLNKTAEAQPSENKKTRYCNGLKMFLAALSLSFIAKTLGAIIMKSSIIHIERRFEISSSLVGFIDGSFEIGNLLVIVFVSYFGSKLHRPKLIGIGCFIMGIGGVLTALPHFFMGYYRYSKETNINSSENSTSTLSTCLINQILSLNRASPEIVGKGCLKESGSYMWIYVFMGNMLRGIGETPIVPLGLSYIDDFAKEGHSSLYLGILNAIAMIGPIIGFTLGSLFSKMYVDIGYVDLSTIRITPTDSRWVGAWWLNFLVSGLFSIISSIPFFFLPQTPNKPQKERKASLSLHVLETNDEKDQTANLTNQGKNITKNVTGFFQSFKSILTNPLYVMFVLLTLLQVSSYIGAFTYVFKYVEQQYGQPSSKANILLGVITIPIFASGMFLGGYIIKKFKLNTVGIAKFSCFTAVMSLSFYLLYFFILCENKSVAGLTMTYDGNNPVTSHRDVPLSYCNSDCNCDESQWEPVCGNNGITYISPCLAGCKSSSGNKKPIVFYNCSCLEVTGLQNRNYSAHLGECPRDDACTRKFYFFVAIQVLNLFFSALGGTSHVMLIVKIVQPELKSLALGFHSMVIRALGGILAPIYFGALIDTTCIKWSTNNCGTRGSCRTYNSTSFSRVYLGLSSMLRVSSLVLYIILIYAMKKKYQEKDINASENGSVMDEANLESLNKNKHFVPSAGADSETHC

## CCOC(=O)C1=C(NN2CCN(CC(F)(F)F)CC2)O/C(=C\c2c[nH]c3ncccc23)C1=O [SRA141]
[1]
  inhibition at 10 µM: > 50%
[2]
  bioavailability: 31 to 54%
[3]; [11]
  median survival, all animals including premature decedents: 35 days
  median survival, premature decedents censored: greater than 99 days
[3]; SRA141-treated mice
  mice with body weight loss greater than 20%: One of ten
[4]; 30 mg/kg and 60 mg/kg single doses
  time of peak pMCM2 decrease: 2-4 hours
[4]; 30 mg/kg single oral dose
  Maximal SRA141 plasma concentration: ~1 µg/mL
[4]; 60 mg/kg single oral dose
  Maximal SRA141 plasma concentration: ~1.5 µg/mL
[4]; 120 mg/kg single dose
  time of peak pMCM2 decrease: 2-8 hours
[4]; 30, 60 and 120 mg/kg
  time of maximal plasma concentration after administration: 2 to 4 h
  tumoral concentrations relative to plasma: similar
[4]; correlation of PK and PD data
  circulating plasma and intra-tumoral tissue concentration required to inhibit pMCM2 by 50%: approximately 1.1 μM
[5]; 9 primary AML samples
  primary AML samples responding with a Therapeutic Index [(Primary AML IC50)÷(BMNC control IC50)]: 5 out of 9
[5]; AML810 censored, read-out: mean IC50, AML samples
  IC50: ~160 nM
[5]; AML-blast progenitor 180, read-out: IC50
  IC50: 337 nM
[5]; AML-blast progenitor 190, read-out: IC50
  IC50: 73 nM
[5]; AML-blast progenitor 200, read-out: IC50
  IC50: 119 nM
[5]; AML-blast progenitor 250, read-out: IC50
  IC50: 159 nM
[5]; AML-blast progenitor 260, read-out: IC50
  IC50: 140 nM
[5]; AML-blast progenitor 717, read-out: IC50
  IC50: 118 nM
[5]; AML-blast progenitor 810 (sample censored), read-out: IC50
  IC50: 831 nM
[5]; AML-blast progenitor 915, read-out: IC50
  IC50: 177 nM
[5]; AML-blast progenitor 917, read-out: IC50
  IC50: 202 nM
[5]; with AML 810, read-out: Mean AML-blast progenitor IC50 (with AML 810)
  IC50: 240 ± 234 nM
[5]; without AML 810, read-out: Mean AML-blast progenitor IC50 (without AML 810)
  IC50: 166 ± 80 nM
[6]; Normal bone marrow 111, read-out: IC50
  IC50: 165 nM
[6]; Normal bone marrow 525 (first line), read-out: IC50
  IC50: 375 nM
[6]; Normal bone marrow 525 (second line), read-out: IC50
  IC50: 212 nM
[6]; mean of 3 samples, read-out: Mean normal bone marrow IC50
  IC50: 251 ± 110 nM
[6]; read-out: mean IC50, normal bone marrow preparations
  IC50: 250 nM
[7]; free base suspension, fasted, range given for mouse, rat and dog together
  bioavailability: 31 to 54%
[7]; two proposed clinical drug product capsule presentations
  bioavailability: 41 to 62%
[8]; 75 mg/kg BID
  complete regressions (tumor volume <13.5 mm3 for 3 consecutive measurements): 1
  partial regressions (tumor volume <50% of initial volume for 3 consecutive measurements): 3
  tumor growth inhibition (TGI): 86.1%
[8]; 75 mg/kg group (n=8)
  median tumor volume: 1838
[8]; 150 mg/kg QD
  partial regressions: 2
  tumor growth inhibition (TGI): 86.7%
[8]; 150 mg/kg group (n=9)
  median tumor volume: 1764
[8]; all treatments
  tolerability: well tolerated with no significant body weight loss
[9]
  concentration from which MCM2 phosphorylation at Ser40/41 and Ser53 was reduced: 0.033 µM
[10]; in vivo, oral, rat (MTD), read-out: MTD/HNSTD Dose
  MTD at 4 cycles (5 days on/2 days off): 100 mg/kg/day
[10]; [12]
  Cmax: 711 ng/mL
  AUC(0-t): 8550 ng·h/mL
[10]; [13]
  Cmax: 289 ng/mL
  AUC(0-t): 2870 ng·h/mL
[10]; [14]
  Cmax: 1610 ng/mL
  AUC(0-t): 29000 ng·h/mL
[10]; [15]
  Cmax: 390 ng/mL
  AUC(0-t): 5130 ng·h/mL
[10]; rat
  NOAEL Dose: 300 mg/m2/day
[10]; rat (MTD)
  MTD/HNSTD Dose: 600 mg/m2/day
[10]; rat and dog repeat-dose studies together
  potential target organs for SRA141-related toxicity: gallbladder/biliary system, lymphoid tissues (spleen, thymus, lymph node and GALT), bone marrow, liver, kidney, male and female reproductive tract, peripheral leukocytes, and salivary gland
[10]; rat, in vivo, oral
  NOAEL at 4 cycles (5 days on/2 days off): 50 mg/kg/day
